pKd: −log10 of the molar value. Like-named read-outs stand apart in the source and are kept apart here. Where a SMILES comes first, the peptide text is derived from it. Bridges are numbered along the chain shown (N, C = ends). [ ]: non-standard residue; d: D form. The star is where a group is joined. hPhe(3-Cl-4-CF3) = N[C@@H](CCc1ccc(C(F)(F)F)c(Cl)c1)C(=O)O; NPrPhe(4-CF3) = CCCN[C@@H](Cc1ccc(C(F)(F)F)cc1)C(=O)O; NMeGly(cPent) = CN[C@H](C(=O)O)C1CCCC1; Hyp = O=C(O)[C@@H]1C[C@@H](O)CN1; NMeD = CN[C@@H](CC(=O)O)C(=O)O; NMeL = CN[C@@H](CC(C)C)C(=O)O; Morpholide = C1CN(*)CCO1; Aze = O=C(O)[C@@H]1CCN1; Ac4c = NC1(C(=O)O)CCC1; Sar = CNCC(=O)O
How the values were obtained:
[1] = biological target: GDP-bound KRAS wild-type protein (Homo sapiens, UniProt P01116); test: Binding to KRAS by surface plasmon resonance (SPR), Single Cycle Kinetics; conditions: GDP-bound KRAS wild-type protein, read-out: KRAS KD
[2] = biological target: GDP-bound NRAS wild-type protein (Homo sapiens, UniProt P01111); test: Binding to NRAS by surface plasmon resonance (SPR), Single Cycle Kinetics; conditions: for NRAS/KRAS (ratio of KD value for NRAS to KD value for KRAS): GDP-bound NRAS wild-type protein vs GDP-bound KRAS wild-type protein; for NRAS/KRAS (ratio of KD value with respect to GDP-bound NRAS wild-type protein to KD value with respect to KRAS): SPR KD ratio NRAS/KRAS, class symbols
[3] = biological target: GDP-bound HRAS wild-type protein (Homo sapiens, UniProt P01112); test: Binding to HRAS by surface plasmon resonance (SPR), Single Cycle Kinetics; conditions: for HRAS/KRAS (ratio of KD value for HRAS to KD value for KRAS): GDP-bound HRAS wild-type protein vs GDP-bound KRAS wild-type protein; for HRAS/KRAS (ratio of KD value with respect to GDP-bound HRAS wild-type protein to KD value with respect to KRAS): SPR KD ratio HRAS/KRAS, class symbols
[4] = SPR Single Cycle Kinetics, 1:1 binding model

Chain of GDP-bound HRAS wild-type protein (P01112 whole entry): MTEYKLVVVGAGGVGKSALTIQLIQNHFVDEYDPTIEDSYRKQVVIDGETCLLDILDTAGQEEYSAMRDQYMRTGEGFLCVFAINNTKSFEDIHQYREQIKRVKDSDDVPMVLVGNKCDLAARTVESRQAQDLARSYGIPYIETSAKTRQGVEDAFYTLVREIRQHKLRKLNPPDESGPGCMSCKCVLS
Chain of GDP-bound KRAS wild-type protein (P01116 whole entry): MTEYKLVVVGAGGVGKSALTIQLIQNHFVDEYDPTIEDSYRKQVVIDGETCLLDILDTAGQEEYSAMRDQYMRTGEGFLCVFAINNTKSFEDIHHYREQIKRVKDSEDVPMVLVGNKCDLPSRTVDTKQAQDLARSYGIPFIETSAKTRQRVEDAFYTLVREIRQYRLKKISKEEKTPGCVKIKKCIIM
Chain of GDP-bound NRAS wild-type protein (P01111 whole entry): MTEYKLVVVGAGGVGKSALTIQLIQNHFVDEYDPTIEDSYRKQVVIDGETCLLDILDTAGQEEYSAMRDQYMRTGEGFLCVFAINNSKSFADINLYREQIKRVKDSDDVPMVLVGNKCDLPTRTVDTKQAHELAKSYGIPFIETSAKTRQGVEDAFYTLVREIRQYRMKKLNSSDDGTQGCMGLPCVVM

SMILES	pKd ([1]; SPR, Single Cycle Kinetics)	NRAS/KRAS (ratio of KD value for NRAS to KD value for KRAS) ([2]; SPR)	HRAS/KRAS (ratio of KD value for HRAS to KD value for KRAS) ([3]; SPR)	pKd [1, 4]	other results
CCO[C@@H]1C[C@H]2C(=O)NC3(CCCC3)C(=O)N(C)[C@@H](C3CCCC3)C(=O)N(C)[C@H](C(=O)N(C)C)CC(=O)N(C)[C@@H](C)C(=O)N[C@@H]([C@@H](C)CC)C(=O)N(C)CC(=O)N(C)[C@H]3C/C=C\CCN(C3=O)[C@@H](Cc3ccc(C(F)(F)F)cc3)C(=O)N(C)CC(=O)N[C@@H](CCc3cc(F)c(C(F)(F)F)c(F)c3)C(=O)N2C1 [PP1104, (2S,8S,12R,14S,20S,23S,27S,30S,36S,38Z)-20-cyclopentyl-8-[2-[3,5-difluoro-4-(trifluoromethyl)phenyl]ethyl]-12-ethoxy-N,N,4,19,22,26,27,32,35-nonamethyl-30-[(1S)-1-methylpropyl]-3,6,9,15,18,21,25,28,31,34,42-undecaoxo-2-[[4-(trifluoromethyl)phenyl]methyl]spiro[1,4,7,10,16,19,22,26,29,32,35-undecazatricyclo[34.5.1.0^10,14]dotetracont-38-ene-17,1′-cyclopentane]-23-carboxamide]	10.23	A (a compound having 10 or more and less than 20 is denoted as A)	A (a compound having 10 or more and less than 20 is denoted as A)	–	–
CCO[C@@H]1C[C@H]2C(=O)NC3(CC(C)(C)C3)C(=O)N(C)[C@@H](C3CCCC3)C(=O)N(C)[C@H](C(=O)N3CCCC3)CC(=O)N(C)[C@H]3CCC/C=C/c4ccc(cc4)C[C@@H](C(=O)N(C)CC(=O)N[C@@H](CCc4cc(F)c(C(F)(F)F)c(F)c4)C(=O)N2C1)N1CC/C=C\C[C@@H](C1=O)N(C)C(=O)CN(C1CC1)C(=O)[C@H]([C@@H](C)CC)NC3=O [PP2583]	–	–	–	9.96	NRAS/KRAS (ratio of KD value with respect to GDP-bound NRAS wild-type protein to KD value with respect to KRAS) [2]: A (a compound having 10 or more and less than 20 is denoted as A); HRAS/KRAS (ratio of KD value with respect to GDP-bound HRAS wild-type protein to KD value with respect to KRAS) [3]: A (a compound having 10 or more and less than 20 is denoted as A)
CCC[C@H]1C(=O)N[C@@H]([C@@H](C)CC)C(=O)N(C)CC(=O)N(C)[C@H]2C/C=C\CCN(C2=O)[C@@H](Cc2ccc(C(F)(F)F)cc2)C(=O)N(C)CC(=O)N[C@@H](CCc2ccc(C(F)(F)F)c(OC)c2)C(=O)N2C[C@H](OCC)C[C@H]2C(=O)NC2(CC(C)(C)C2)C(=O)N(C)[C@@H](C(CC)CC)C(=O)N(C)[C@H](C(=O)N(C)C)CC(=O)N1C [PP2160]	9.66	A (a compound having 10 or more and less than 20 is denoted as A)	A (a compound having 10 or more and less than 20 is denoted as A)	–	–
CCC[C@H]1C(=O)N[C@@H]([C@@H](C)CC)C(=O)N(C)CC(=O)N(C)[C@H]2C/C=C\CCN(C2=O)[C@@H](Cc2ccc(C(F)(F)F)cc2)C(=O)N(C)CC(=O)N[C@@H](CCc2ccc3ccn(C)c3c2)C(=O)N2C[C@H](OCC)C[C@H]2C(=O)NC2(CC(C)(C)C2)C(=O)N(C)[C@@H](C2CCCC2)C(=O)N(C)[C@H](C(=O)N(C)C)CC(=O)N1C [PP2901]	–	–	–	8.51	NRAS/KRAS (ratio of KD value with respect to GDP-bound NRAS wild-type protein to KD value with respect to KRAS) [2]: A (a compound having 10 or more and less than 20 is denoted as A); HRAS/KRAS (ratio of KD value with respect to GDP-bound HRAS wild-type protein to KD value with respect to KRAS) [3]: A (a compound having 10 or more and less than 20 is denoted as A)
CCO[C@@H]1C[C@H]2C(=O)NC3(CC(C)(C)C3)C(=O)N(C)[C@@H](C3CCCC3)C(=O)N(C)[C@H](C(C)C)CC(=O)N(C)[C@@H](CC)C(=O)N[C@@H]([C@@H](C)CC)C(=O)N(C)CC(=O)N(C)[C@H]3C/C=C\CCN(C3=O)[C@@H](CC3CCCCC3)C(=O)N(C)CC(=O)N[C@@H](CCc3cc(F)c(C(F)(F)F)c(F)c3)C(=O)N2C1 [PP1603]	–	–	–	–	pKd ([1]; SPR, Single Cycle Kinetics, 1:1 binding model): 8.28; NRAS/KRAS (ratio of KD value for NRAS to KD value for KRAS) ([2]; SPR, KD ratio class): B (a compound having 3 or more and less than 10 is denoted as B); HRAS/KRAS (ratio of KD value for HRAS to KD value for KRAS) ([3]; SPR, KD ratio class): B (a compound having 3 or more and less than 10 is denoted as B)
CCC[C@H]1C(=O)N[C@@H]([C@@H](C)CC)C(=O)N2CCC[C@H]2C(=O)N(C)[C@H]2C/C=C\CCN(C2=O)[C@@H](CC2CCCCC2)C(=O)N(C)CC(=O)N[C@@H](CCc2ccc(C(F)(F)F)c(OC)c2)C(=O)N2C[C@H](OCC)C[C@H]2C(=O)N(C)C2(CCC2)C(=O)N(C)[C@@H](C2CCCC2)C(=O)N(C)[C@H](C(=O)N(C)C)CC(=O)N1C [PP2344]	9.02	A (a compound having 10 or more and less than 20 is denoted as A)	A (a compound having 10 or more and less than 20 is denoted as A)	–	–
CCO[C@@H]1C[C@H]2C(=O)NC3(CC(C)(C)C3)C(=O)N(C)[C@@H](C3CCCC3)C(=O)N(C)[C@H](C(=O)N(C)CC)CC(=O)N(C)[C@@H](C3CC3)C(=O)N[C@@H]([C@@H](C)CC)C(=O)N(C)CC(=O)N(C)[C@H]3C/C=C\CCN(C3=O)[C@@H](Cc3ccc(C(F)(F)F)cc3)C(=O)N(C)CC(=O)N[C@@H](CCc3cc(F)c(C(F)(F)F)c(F)c3)C(=O)N2C1 [PP2036]	10.05	A (a compound having 10 or more and less than 20 is denoted as A)	A (a compound having 10 or more and less than 20 is denoted as A)	–	–
CCO[C@@H]1C[C@H]2C(=O)NC3(CC(C)(C)C3)C(=O)N(C)[C@@H](C3CCCC3)C(=O)N(C)[C@H](C(=O)N(C)C)CC(=O)N(C)[C@H]3CCCC/C=C/c4ccc(cc4)C[C@@H](C(=O)N(C)CC(=O)N[C@@H](CCc4ccc(C(F)(F)F)c(OC)c4)C(=O)N2C1)N1CC/C=C\C[C@@H](C1=O)N(C)C(=O)CN(C)C(=O)[C@H]([C@@H](C)CC)NC3=O [PP1832]	10.40	–	–	–	NRAS/KRAS (KD ratio) ([2]; ratio of KD for GDP-bound NRAS wild-type protein to KD for KRAS, SPR): B (a compound having 3 or more and less than 10 is denoted as B); HRAS/KRAS (KD ratio) ([3]; ratio of KD for GDP-bound HRAS wild-type protein to KD for KRAS, SPR): B (a compound having 3 or more and less than 10 is denoted as B)
CCO[C@@H]1C[C@H]2C(=O)NC3(CC(C)(C)C3)C(=O)N(C)[C@@H](C(CC)CC)C(=O)N(C)[C@H](C(=O)N(C)C)CC(=O)N(C)[C@@H](CC3CCC3)C(=O)N[C@@H]([C@@H](C)CC)C(=O)N(C)CC(=O)N(C)[C@H]3C/C=C\CCN(C3=O)[C@@H](Cc3ccc(C)cc3)C(=O)N(C)CC(=O)N[C@@H](CCc3ccc(C(F)(F)F)c(Cl)c3)C(=O)N2C1 [PP2156]	9.39	AA (a compound having 20 or more is denoted as AA)	A (a compound having 10 or more and less than 20 is denoted as A)	–	–
CCC[C@H]1C(=O)N[C@@H]([C@@H](C)CC)C(=O)N(C)CC(=O)N(C)[C@H]2C/C=C\CCN(C2=O)[C@@H](Cc2ccc(C)cc2)C(=O)N(C)CC(=O)N[C@@H](CCc2ccc(C(F)(F)F)c(Cl)c2)C(=O)N2C[C@H](OCC)C[C@H]2C(=O)NC2(CC(C)(C)C2)C(=O)N(C)[C@@H](CC(F)(F)F)C(=O)N(C)[C@H](C(=O)N(C)C)CC(=O)N1C [PP2226]	9.09	A (a compound having 10 or more and less than 20 is denoted as A)	A (a compound having 10 or more and less than 20 is denoted as A)	–	–
CC[C@H](C)[C@@H]1NC(=O)[C@H](CC(C)C)N(C)C(=O)C[C@@H](C(=O)N2CCOCC2)N(C)C(=O)[C@H](C2CCCC2)N(C)C(=O)C2(CCC2)NC(=O)[C@@H]2C[C@@H](C(F)(F)F)CN2C(=O)[C@H](CCc2cc(F)c(C(F)(F)F)c(F)c2)NC(=O)CN(C)C(=O)[C@H](Cc2ccc(C(F)(F)F)cc2)N2CCCCC[C@@H](C2=O)N(C)C(=O)CN(C)C1=O [PP0818]	8.77	B (a compound having 3 or more and less than 10 is denoted as B)	B (a compound having 3 or more and less than 10 is denoted as B)	–	–
CCCN1C(=O)CN(C)C(=O)CNC(=O)[C@H]([C@@H](C)CC)NC(=O)[C@H](CC(C)C)N(C)C(=O)C[C@@H](C(=O)N2CCOCC2)N(C)C(=O)[C@H](C2CCCC2)N(C)C(=O)C2(CCC2)NC(=O)[C@@H]2CCCN2C(=O)[C@H](CCc2ccc(C(F)(F)F)c(Cl)c2)NC(=O)CN(C)C(=O)[C@@H]1Cc1ccc(C(F)(F)F)cc1 [PP0393] ([NMeL]IG[Sar][NPrPhe(4-CF3)][Sar][hPhe(3-Cl-4-CF3)]P[Ac4c][NMeGly(cPent)][NMeD]-Morpholide; lactam N-11)	–	B (a compound having 3 or more and less than 10 is denoted as B)	B (a compound having 3 or more and less than 10 is denoted as B)	9.96	–
CCCN1C(=O)[C@@H]2CCN2C(=O)CN(C)C(=O)[C@H]([C@@H](C)CC)NC(=O)[C@H](CC(C)C)N(C)C(=O)C[C@@H](C(=O)N(C)C)NC(=O)[C@H](C2CCCC2)N(C)C(=O)C2(CCC2)NC(=O)[C@@H]2C[C@@H](OCC)CN2C(=O)[C@H](CCc2ccc(C(F)(F)F)c(Cl)c2)NC(=O)CN(C)C(=O)[C@@H]1Cc1ccc(C(F)(F)F)cc1 [PP0390] ([NMeL]I[Sar][Aze][NPrPhe(4-CF3)][Sar][hPhe(3-Cl-4-CF3)][Hyp](Et)[Ac4c][NMeGly(cPent)]D-NMe2; lactam N-11)	–	C (A compound having a KD ratio of 0.1 or more and less than 3 is denoted as C)	B (a compound having 3 or more and less than 10 is denoted as B)	9.70	–
